Biological target: T1, Full-length human recombinant N-term FLAG-tagged MASTL protein (Homo sapiens, UniProt Q96GX5)
T1 sequence (Q96GX5 1-879): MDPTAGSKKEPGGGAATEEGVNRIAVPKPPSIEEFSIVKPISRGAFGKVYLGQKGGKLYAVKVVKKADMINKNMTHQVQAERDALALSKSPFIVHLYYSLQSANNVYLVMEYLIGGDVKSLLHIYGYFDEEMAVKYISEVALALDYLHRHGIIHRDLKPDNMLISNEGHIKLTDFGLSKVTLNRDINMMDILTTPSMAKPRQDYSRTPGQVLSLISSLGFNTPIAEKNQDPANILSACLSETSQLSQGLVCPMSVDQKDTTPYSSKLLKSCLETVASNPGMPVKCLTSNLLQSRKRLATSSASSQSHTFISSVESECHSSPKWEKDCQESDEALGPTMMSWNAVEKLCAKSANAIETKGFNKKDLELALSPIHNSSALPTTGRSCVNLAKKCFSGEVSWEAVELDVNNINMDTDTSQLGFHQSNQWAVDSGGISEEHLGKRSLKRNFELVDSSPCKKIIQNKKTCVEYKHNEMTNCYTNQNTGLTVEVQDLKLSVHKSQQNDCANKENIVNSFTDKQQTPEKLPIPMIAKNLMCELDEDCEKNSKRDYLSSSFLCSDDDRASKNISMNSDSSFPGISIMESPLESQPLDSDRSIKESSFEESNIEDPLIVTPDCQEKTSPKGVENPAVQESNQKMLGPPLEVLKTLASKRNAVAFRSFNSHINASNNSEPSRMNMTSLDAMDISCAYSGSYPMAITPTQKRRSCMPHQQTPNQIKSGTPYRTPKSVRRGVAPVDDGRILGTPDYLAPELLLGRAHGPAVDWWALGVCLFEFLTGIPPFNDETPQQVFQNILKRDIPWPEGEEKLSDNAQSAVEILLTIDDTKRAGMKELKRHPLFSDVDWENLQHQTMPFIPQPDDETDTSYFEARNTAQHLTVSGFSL
Experiment: MASTL enzyme kinase assay (CHEF PhosphoSens)
Conditions: MASTL Ki (nM), 3 nM MASTL, 1 mM ATP, room temperature; geometric mean of at least 3 independent determinations (* denotes n = 2)
Source text: MASTL enzyme kinase assay was used to measure the inhibition constant (Ki) of Examples of the present invention.
Full-length human recombinant N-term FLAG-tagged MASTL protein (construct LJIC-3077G2), activated by CDK1, was produced at Pfizer Inc by expression in baculovirus-infected insect cells. All reagents were purchased from Sigma-Aldrich, Inc (St. Louis, MO), unless specified otherwise. Tween™ 20 detergent (10% Solution) was purchased from EMD Millipore Corp (Billerica, MA). The CHEF phosphoacceptor peptide substrate (AQT0693) was purchased from AssayQuant technologies, Inc (Marlboro, MA). […] The reactions contained 1 mM ATP and were initiated by the addition of enzyme. Initial reaction velocities were determined by following the fluorescence (λex=360 nm, λem=485 nm) of appropriate CHEF peptide substrate for 120 minutes in an end-point mode in a SpectraMax Paradigm Microplate Reader (Molecular Devices, LLC. San Jose, California). The extents of reactions were estimated to be <20%.

Cn1nncc1-c1cc2cc(Nc3cc(C(N)CC(F)(F)F)ccn3)ncc2c(N)n1 (single isomer, unassigned) [Example 18, N^6-(4-(1-amino-3,3,3-trifluoropropyl)pyridin-2-yl)-3-(1-methyl-1H-1,2,3-triazol-5-yl)-2,7-naphthyridine-1,6-diamine]
Ki: 0.088 nM

Cn1nncc1-c1cc2cc(Nc3cc(C(C)(N)C(F)(F)F)ccn3)ncc2c(N)n1 (single isomer, unassigned) [Example 28, N^6-(4-(2-amino-1,1,1-trifluoropropan-2-yl)pyridin-2-yl)-3-(1-methyl-1H-1,2,3-triazol-5-yl)-2,7-naphthyridine-1,6-diamine]
Ki: 0.093 nM

CNC(C)(c1ccnc(Nc2cc3cc(-c4cnnn4C)nc(N)c3cn2)c1)C1CC1 (single isomer, unassigned) [Example 19, N^6-(4-(1-cyclopropyl-1-(methylamino)ethyl)pyridin-2-yl)-3-(1-methyl-1H-1,2,3-triazol-5-yl)-2,7-naphthyridine-1,6-diamine]
Ki: 0.047 nM

CCC1(NC)CCc2c1ccnc2Nc1cc2cc(-c3cnnn3C)nc(N)c2cn1 (single isomer, unassigned) [Example 3, N^6-(5-ethyl-5-(methylamino)-6,7-dihydro-5H-cyclopenta[c]pyridin-1-yl)-3-(1-methyl-1H-1,2,3-triazol-5-yl)-2,7-naphthyridine-1,6-diamine]
Ki: 0.36 nM

CCC1(NC)CCc2cnc(Nc3cc4cc(-c5cnnn5C)nc(N)c4cn3)cc21 (single isomer, unassigned) [Example 5, N^6-(5-ethyl-5-(methylamino)-6,7-dihydro-5H-cyclopenta[c]pyridin-3-yl)-3-(1-methyl-1H-1,2,3-triazol-5-yl)-2,7-naphthyridine-1,6-diamine]
Ki: 0.033 nM

CCC1(NC)CCc2cnc(Nc3cc4cc(-c5cnnn5C)nc(N)c4cn3)cc21 (single isomer, unassigned) [Example 6, N^6-(5-ethyl-5-(methylamino)-6,7-dihydro-5H-cyclopenta[c]pyridin-3-yl)-3-(1-methyl-1H-1,2,3-triazol-5-yl)-2,7-naphthyridine-1,6-diamine]
Ki: 0.076 nM

CNC1(c2ccnc(Nc3cc4cc(-c5cnnn5C)nc(N)c4cn3)c2)CCCC1 [Example 27, 3-(1-methyl-1H-1,2,3-triazol-5-y1)-N^6-(4-(1-(methylamino)cyclopentyl)pyridin-2-yl)-2,7-naphthyridine-1,6-diamine]
Ki: 0.073 nM

Cn1nncc1-c1cc2cc(Nc3cc(C(N)CC(F)(F)F)ccn3)ncc2c(N)n1 (single isomer, unassigned) [Example 17, N^6-(4-(1-amino-3,3,3-trifluoropropyl)pyridin-2-yl)-3-(1-methyl-1H-1,2,3-triazol-5-yl)-2,7-naphthyridine-1,6-diamine]
Ki: 0.12 nM

CNC(C)(COC)c1ccnc(Nc2cc3cc(-c4cnnn4C)nc(N)c3cn2)c1 (single isomer, unassigned) [Example 32, N^6-(4-(1-methoxy-2-(methylamino)propan-2-yl)pyridin-2-yl)-3-(1-methyl-1H-1,2,3-triazol-5-yl)-2,7-naphthyridine-1,6-diamine]
Ki: 0.087 nM

Cn1nncc1-c1cc2cc(Nc3cc(C(C)(N)C(F)(F)F)ccn3)ncc2c(N)n1 (single isomer, unassigned) [Example 29, N^6-(4-(2-amino-1,1,1-trifluoropropan-2-yl)pyridin-2-yl)-3-(1-methyl-1H-1,2,3-triazol-5-yl)-2,7-naphthyridine-1,6-diamine]
Ki: 0.17 nM

CNC(C)(c1ccnc(Nc2cc3cc(-c4cnnn4C)nc(N)c3cn2)c1)C(C)C (single isomer, unassigned) [Example 31, 3-(1-methyl-1H-1,2,3-triazol-5-yl)-N^6-(4-(3-methyl-2-(methylamino)butan-2-yl)pyridin-2-yl)-2,7-naphthyridine-1,6-diamine]
Ki: 0.03 nM

Cn1nncc1-c1cc2cc(Nc3cc(C(C)(N)CC(F)(F)F)ccn3)ncc2c(N)n1 (single isomer, unassigned) [Example 25, N^6-(4-(2-amino-4,4,4-trifluorobutan-2-yl)pyridin-2-yl)-3-(1-methyl-1H-1,2,3-triazol-5-yl)-2,7-naphthyridine-1,6-diamine]
Ki: 0.078 nM

CNC(c1ccnc(Nc2cc3cc(-c4cnnn4C)nc(N)c3cn2)c1)C(C)(C)C (single isomer, unassigned) [Example 35, N^6-(4-(2,2-dimethyl-1-(methylamino)propyl)pyridin-2-yl)-3-(1-methyl-1H-1,2,3-triazol-5-yl)-2,7-naphthyridine-1,6-diamine]
Ki: 0.32 nM

CCC(N)c1cc(Nc2cc3cc(-c4cnnn4C)nc(N)c3cn2)ncc1C (single isomer, unassigned) [Example 14, N^6-(4-(1-aminopropyl)-5-methylpyridin-2-yl)-3-(1-methyl-1H-1,2,3-triazol-5-yl)-2,7-naphthyridine-1,6-diamine]
Ki: 0.098 nM

CNC1(c2ccnc(Nc3cc4cc(-c5cnnn5C)nc(N)c4cn3)c2)CCC1 [Example 24, 3-(1-methyl-1H-1,2,3-triazol-5-y1)-N^6-(4-(1-(methylamino)cyclobutyl)pyridin-2-yl)-2,7-naphthyridine-1,6-diamine]
Ki: 0.089 nM

CNC(C)(c1ccnc(Nc2cc3cc(-c4cnnn4C)nc(N)c3cn2)c1)C1CC1 (single isomer, unassigned) [Example 20, N^6-(4-(1-cyclopropyl-1-(methylamino)ethyl)pyridin-2-yl)-3-(1-methyl-1H-1,2,3-triazol-5-yl)-2,7-naphthyridine-1,6-diamine]
Ki: 0.049 nM

CNC(C)(c1ccnc(Nc2cc3cc(-c4cnnn4C)nc(N)c3cn2)c1)C(C)C (single isomer, unassigned) [Example 30, 3-(1-methyl-1H-1,2,3-triazol-5-yl)-N^6-(4-(3-methyl-2-(methylamino)butan-2-yl)pyridin-2-yl)-2,7-naphthyridine-1,6-diamine]
Ki: 0.036 nM

CCn1nncc1-c1cc2cc(Nc3cc(C4(N)CCCC4)ccn3)ncc2c(N)n1 [Example 38, N^6-(4-(1-aminocyclopentyl)pyridin-2-yl)-3-(1-ethyl-1H-1,2,3-triazol-5-yl)-2,7-naphthyridine-1,6-diamine]
Ki: 0.019 nM

CNC(C)(COC)c1ccnc(Nc2cc3cc(-c4cnnn4C)nc(N)c3cn2)c1 (single isomer, unassigned) [Example 33, N^6-(4-(1-methoxy-2-(methylamino)propan-2-yl)pyridin-2-yl)-3-(1-methyl-1H-1,2,3-triazol-5-yl)-2,7-naphthyridine-1,6-diamine]
Ki: 0.25 nM

CNC(c1ccnc(Nc2cc3cc(-c4cnnn4C)nc(N)c3cn2)c1)C(C)(C)C (single isomer, unassigned) [Example 34, N^6-(4-(2,2-dimethyl-1-(methylamino)propyl)pyridin-2-yl)-3-(1-methyl-1H-1,2,3-triazol-5-yl)-2,7-naphthyridine-1,6-diamine]
Ki: 0.23 nM

CCC1(NC)CCc2c1ccnc2Nc1cc2cc(-c3cnnn3C)nc(N)c2cn1 (single isomer, unassigned) [Example 4, N^6-(5-ethyl-5-(methylamino)-6,7-dihydro-5H-cyclopenta[c]pyridin-1-yl)-3-(1-methyl-1H-1,2,3-triazol-5-yl)-2,7-naphthyridine-1,6-diamine]
Ki: 0.47 nM

CCn1nncc1-c1cc2cc(Nc3cc(C(C)(C)NC)ccn3)ncc2c(N)n1 [Example 37, 3-(1-ethyl-1H-1,2,3-triazol-5-yl)-N^6-(4-(2-(methylamino)propan-2-yl)pyridin-2-yl)-2,7-naphthyridine-1,6-diamine]
Ki: 0.059 nM

CN(C)C(C)(C)c1ccnc(Nc2cc3cc(-c4cnnn4C)nc(N)c3cn2)c1 [Example 36, N^6-(4-(2-(dimethylamino)propan-2-yl)pyridin-2-yl)-3-(1-methyl-1H-1,2,3-triazol-5-yl)-2,7-naphthyridine-1,6-diamine]
Ki: 0.061 nM

Cn1nncc1-c1cc2cc(Nc3cc(C(C)(N)CC(F)(F)F)ccn3)ncc2c(N)n1 (single isomer, unassigned) [Example 26, N^6-(4-(2-amino-4,4,4-trifluorobutan-2-yl)pyridin-2-yl)-3-(1-methyl-1H-1,2,3-triazol-5-yl)-2,7-naphthyridine-1,6-diamine]
Ki: 0.075 nM

CCC(N)c1cc(Nc2cc3cc(-c4cnnn4C)nc(N)c3cn2)ncc1C (single isomer, unassigned) [Example 13, N^6-(4-(1-aminopropyl)-5-methylpyridin-2-yl)-3-(1-methyl-1H-1,2,3-triazol-5-yl)-2,7-naphthyridine-1,6-diamine]
Ki: 0.065 nM

CCC(N)(CC)c1cc(Nc2cc3cc(-c4cnnn4C)nc(N)c3cn2)ncn1 [Example 23, N^6-(6-(3-aminopentan-3-yl)pyrimidin-4-yl)-3-(1-methyl-1H-1,2,3-triazol-5-yl)-2,7-naphthyridine-1,6-diamine]
Ki: 0.057 nM
